Results reported in patent publication US12161688B2, “Treatment of inflammatory bowel disease with long acting glatiramer and adipose-derived stem cells” (STEM CELL MEDICINE LTD., priority 2016, dated 2024).

System: DSS-induced IBD
Assay: DSS-induced inflammatory bowel disease (acute colitis) in mice
Type: in vivo, C57BL/6 female mice
Description: Glatiramer acetate (GA) and GA Depot administration: […] GA Depot was suspended in sterile water for injection (WFI) (B Braun, Melsumgen, Germany) and injected intramuscularly (IM) at 10 mg dose (doses of GA Depot are given according to amount of active ingredient, i.e. GA Depot 10 mg contains 10 mg GA) divided to two 5 mg doses on days 0 and 1 due to technical reasons (volume limitation). Animals: All animal studies were approved by local ethics committees. C57BL/6 female mice, 7-9 weeks old were randomized into control or treatment groups with similar mean weight Animals were given food and water ad libitum throughout the experiment. Cell culture: SVF was plated at a density of 2×10^6 cells per 75 cm^2. Cells were grown to 80% confluency, trypsinized and sub-cultured up to passage 3-4. Cells were then collected and analyzed by FACS for the markers: […] The cells were stored frozen in liquid nitrogen until use. For use, the cells were thawed and plated at a concentration of 50,000 cells/cm^2 and incubated overnight. Prior to cells intraperitoneal (IP) injection the cells were trypsinized, counted and prepared for injection at a concentration of 1×10^6 cell/100 ul PBS and kept in ice until use for a period no longer than 30 min. Inflammatory bowel disease (IBD) induction: A widely used IBD model in mice is the dextran sulfate sodium (DSS)-induced colitis. DSS administration in the mice drinking water leads to many of the events presumed to initiate and sustain human IBD (Boismenu and Chen (2000) J Leukoc Biol, 67:267-278). […] In brief, body weight, rectal bleeding (observation of bleeding signs on the anus or gross bleeding), stool consistency and survival were monitored daily. […] Fourteen (14) days following disease induction, mice were sacrificed and the large intestine was collected and evaluated for colon length and microscopic colonic damage. […] Statistical analysis: Each data set was analyzed using single-factor analysis of variance (ANOVA) followed by two-tailed, two-sample students' T test assuming unequal variances, n=10/group, +/-standard error.

For “L-glutamic acid polymer with L-alanine, L-lysine and L-tyrosine, acetate (salt) [Copaxone®]”, which “animals showing bleeding (Hemoccult test)” value (day 5) is on record?
Its value is 50%.

What about the “animals showing bleeding (Hemoccult test)” value (day 10) of the same substance?
The value was 20%.

And the “effect on IBD manifestations (overall conclusion)” value (mouse, in vivo)?
The value was “almost no effect”.
